Measured values from patent US9951011B2, “Carbazole compounds for in vivo imaging” (priority 2013, dated 2018).
Like-named read-outs stand apart in the source and are kept apart here.

Key:
TSPO [1] = settings: low:high affinity ratio; Compounds 1 and 2 used as racemates
Method: (§1) Membrane protein was prepared from human platelets obtained from 4 donor whole blood samples. […] Platelet pellets were homogenised in 10 ml buffer 1 (0.32 mM sucrose, 5 mM Tris base, 1 mM MgCl2, pH 7.4, 4° C.). The homogenates were centrifuged at 48,000×g for 15 minutes at 4° C. in a Beckman J2-MC centrifuge. The supernatant was removed and pellets were re-suspended in at least 10 ml buffer 2 (50 mM Tris base, 1 mM MgCl2, pH 7.4, 4° C.) and washed by centrifugation at 48,000×g for 15 min at 4° C. in buffer 2. Membranes were suspended in 2 ml buffer 2 and the protein concentration was determined using Protein Assay Kit II (Bio Rad cat #500-0002). Aliquots were stored at −80° C. until use.
(§2) Aliquots of membrane suspension were thawed and homogenised with assay buffer 3 (50 mM Tris base, 140 mM NaCl, 1.5 mM MgCl2, 5 mM KCl, 1.5 mM CaCl2, pH 7.4, 37° C.). […] Non-radioactive Compound 1 was diluted on a Beckman Biomek 2000 workstation at 11 serial dilutions ranging from 1 μM to 0.01 nM. GE180 and non-radioactive Compound 2 were diluted at 11 serial dilutions ranging from 100 μM to 1 nM. Total and nonspecific binding assessments were also performed. 160 μL of platelet membranes diluted to 30 μg/mL were added to the assay plate for a final volume of 200 μL/well. Assay plates were incubated at 37° C. for at least one hour with termination of incubation by filtering onto GF/B glass fibre plates (Perkin Elmer; cat #6005177) pre-soaked in 0.1% PEI in saline for 60 minutes. Assay plates were rinsed five to six times with ice cold buffer 4 (50 mM Tris Base, 1.4 mM MgCl2, pH 7.4, 4° C.) on a Perkin Elmer Filtermate 196. Plates were then dried, the bottoms sealed, and 50 μL of MicroScint 20 (Perkin Elmer cat #6013621) was added to each well. After sealing the tops, the plates were allowed to equilibrate for at least 30 minutes and the captured radioactivity was counted on a Perkin Elmer TopCount NTX.

TSPO [2] = biological target: T1, TSPO (Homo sapiens, UniProt P30536, T147A); experiment: biochemical
Method: as §1, §2

TSPO [3] = biological target: T2, TSPO (Homo sapiens, UniProt P30536); experiment: biochemical
Method: as §1, §2

TSPO [4] = settings: low:high affinity ratio; resolved enantiomers
Method: as §1
(§3) Aliquots of membrane suspension were thawed and homogenised with assay buffer 3 (50 mM Tris base, 140 mM NaCl, 1.5 mM MgCl2, 5 mM KCl, 1.5 mM CaCl2, pH 7.4, 37° C.). […] Non-radioactive Compound 1 was diluted on a Beckman Biomek 2000 workstation at 11 serial dilutions ranging from 1 μM to 0.01 nM. GE180 and non-radioactive Compound 2 were diluted at 11 serial dilutions ranging from 100 μM to 1 nM. Total and nonspecific binding assessments were also performed. 160 μL of platelet membranes diluted to 30 μg/mL were added to the assay plate for a final volume of 200 μL/well. Assay plates were incubated at 37° C. for at least one hour with termination of incubation by filtering onto GF/B glass fibre plates (Perkin Elmer; cat #6005177) pre-soaked in 0.1% PEI in saline for 60 minutes. Assay plates were rinsed five to six times with ice cold buffer 4 (50 mM Tris Base, 1.4 mM MgCl2, pH 7.4, 4° C.) on a Perkin Elmer Filtermate 196. Plates were then dried, the bottoms sealed, and 50 μL of MicroScint 20 (Perkin Elmer cat #6013621) was added to each well. After sealing the tops, the plates were allowed to equilibrate for at least 30 minutes and the captured radioactivity was counted on a Perkin Elmer TopCount NTX. Compound 1 and Compound 2 were used as racemates.
(§4) Compound 1 and Compound 2 were resolved into enantiomers and the competitive binding assay was performed using platelets isolated from the same 4 human donor whole blood samples as described in Example 6.

TSPO [5] = biological target: T1, TSPO; experiment: biochemical; remark: listed apart in the source
Method: as §1, §3, §4

TSPO [6] = biological target: T2, TSPO; experiment: biochemical; remark: listed apart in the source
Method: as §1, §3, §4

TSPO [7] = settings: in vitro; LABs versus HABs; cited from earlier work
TSPO [8] = settings: versus [11C]PBR28; cited from earlier work

T1 sequence (P30536 2-169 T147A): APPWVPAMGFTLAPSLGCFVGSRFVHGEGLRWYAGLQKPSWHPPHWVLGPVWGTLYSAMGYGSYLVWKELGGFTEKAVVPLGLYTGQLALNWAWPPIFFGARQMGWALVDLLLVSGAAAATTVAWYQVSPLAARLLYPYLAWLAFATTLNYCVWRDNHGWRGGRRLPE
T2 sequence (P30536 2-169): as the sequence (P30536 2-169 T147A) above, with A146T counted along it

Ki (TSPO [5]) [nM] | Ki (TSPO [6]) [nM] | SMILES | Low:High (TSPO [4]) | also measured
– | – | CC(C)N(C)C(=O)[C@H]1CCCc2c1c1ccccc1n2CCF (racemic) [Compound 2, (S)—N-isopropyl-N-methyl-9-(2-fluoroethyl)-2,3,4,9-tetrahydro-1H-carbazole-4-carboxamide] | – | Low:High (TSPO [1]): 1.02; Ki (TSPO [2]): 43.8 nM; Ki (TSPO [3]): 44.9 nM
– | – | CCC(C)N(C)C(=O)c1cc2ccccc2c(-c2ccccc2Cl)n1 (stereo not drawn) [PK11195, reference compound] | 1 | –
83 | 402 | CC(C)N(C)C(=O)[C@@H]1CCCc2c1c1ccccc1n2CCF [Compound 2 E2] | 5 | –
– | – | COc1ccccc1CN(C(C)=O)c1cnccc1Oc1ccccc1 [[3H]PBR28] | – | lower TSPO affinity in LABs than in HABs (TSPO [7]): more than 10 fold
24 | 23 | CC(C)N(C)C(=O)[C@H]1CCCc2c1c1ccccc1n2CCF [Compound 2 E1, (S)—N-isopropyl-N-methyl-9-(2-fluoroethyl)-2,3,4,9-tetrahydro-1H-carbazole-4-carboxamide] | 1 | –
4 | 125 | CCN(Cc1ccccc1)C(=O)[C@@H]1CCCc2c1c1ccccc1n2CCF [Compound 1 E2] | 32 | –
– | – | CCC(C)N(C)C(=O)c1cc2ccccc2c(-c2ccccc2Cl)n1 (stereo not drawn) [[11C]PK11195] | – | in vivo specific binding in monkey brain, lower than that reported for [11C]PBR28 (TSPO [8]): ~80 fold
– | – | CCN(CC)C(=O)[C@H]1CCCc2c1c1c(OC)cccc1n2CCF (stereo in doubt) [GE180, 9-(2-Fluoro-ethyl)-5-methoxy-2,3,4,9-tetrahydro-1H-carbazole-4-carboxylic acid diethylamide, reference compound] | 3 | Low:High (TSPO [1]): 15.44
4 | 5 | CCN(Cc1ccccc1)C(=O)[C@H]1CCCc2c1c1ccccc1n2CCF [Compound 1 E1, (S)—N-benzyl-N-ethyl-9-(2-fluoroethyl)-2,3,4,9-tetrahydro-1H-carbazole-4-carboxamide] | 1 | –
– | – | COc1ccccc1CN(C(C)=O)c1cnccc1Oc1ccccc1 [PBR28, N-(2-methoxybenzyl)-N-(4-phenoxypyridin-3-yl)acetamide, reference compound] | 28 | –
– | – | CCN(Cc1ccccc1)C(=O)[C@H]1CCCc2c1c1ccccc1n2CCF (racemic) [Compound 1, (S)—N-benzyl-N-ethyl-9-(2-fluoroethyl)-2,3,4,9-tetrahydro-1H-carbazole-4-carboxamide] | – | Low:High (TSPO [1]): 3.24; Ki (TSPO [2]): 1.85 nM; Ki (TSPO [3]): 5.98 nM
